The results in this text go back to patent US6342503B1, “1N-alkyl-n-arylpyrimidinamines and derivatives thereof” (DuPont Pharmaceuticals Company, priority 1993, dated 2002).

In general, Ki refers to the dissociation constant of the complex between target and ligand, obtained from inhibition or displacement.

The structures appear in SMILES notation. Like-named read-outs stand apart in the source and are kept apart here.

For the experiment, the target named is T1, CRF receptor (Rattus norvegicus, UniProt P35353).
T1 construct: 100 μl of membrane suspension as prepared above to give a total reaction volume of 300 μl; from tissue; host or cells: rat cerebral cortex membrane homogenate
T1 sequence (P35353 24-415): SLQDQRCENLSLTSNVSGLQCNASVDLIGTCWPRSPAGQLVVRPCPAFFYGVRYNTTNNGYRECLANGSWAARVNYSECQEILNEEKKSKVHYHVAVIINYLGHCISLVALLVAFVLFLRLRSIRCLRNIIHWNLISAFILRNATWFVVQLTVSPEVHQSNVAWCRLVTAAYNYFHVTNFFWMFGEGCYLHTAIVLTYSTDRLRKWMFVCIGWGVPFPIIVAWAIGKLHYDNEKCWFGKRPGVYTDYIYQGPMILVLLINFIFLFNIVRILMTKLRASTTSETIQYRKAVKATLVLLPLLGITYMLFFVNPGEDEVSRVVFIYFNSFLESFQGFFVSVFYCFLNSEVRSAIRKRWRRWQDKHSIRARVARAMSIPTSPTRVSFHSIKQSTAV
The experiment in a line: In vitro CRF receptor binding assay (competition with [125I] ovine CRF, rat cortex membranes). As to conditions: read-out: Inhibition Ki. The method, then:
In vitro Receptor Binding Assay
Tissue Preparation: Male Sprague Dawley rats (180-200 g) were sacrificed by decapitation and the cortex was dissected on ice, frozen whole in liquid nitrogen and stored at −70° C. until use. On the day of assay, frozen tissue was weighed and homogenized in 20 volumes of ice cold buffer containing 50 mM Tris, 10 mM MgCl2, 2 mM EGTA, pH 7.0 at 22° C. using a Polytron (Brinkmann Instruments, Westbury, N.Y.; setting 6) for 20 s. The homogenate was centrifuged at 48,000× g for 10 min at 4° C. The supernatant was discarded, and the pellet was re-homogenized in the same volume of buffer and centrifuged at 48,000× g for 10 min at 4° C. The resulting pellet was resuspended in the above buffer to a final concentration of 20-40 mg original wet weight/mL and used in the assays described below.
CRF Receptor Binding: Receptor binding assays were carried out essentially as described by E. B. De Souza, J. Neurosci. […]
All assays were carried out at equilibrium for 2 h at 22° C. as described by E. B. De Souza, J. Neurosci. […] The reaction was terminated by centrifugation of the tubes in a Beckman microfuge for 5 min at 12,000× g. Aliquots of the supernatant were collected to determine the “free” radioligand concentration. The remaining supernatant was aspirated and the pellets washed gently with ice-cold PBS plus 0.01% Triton X-100; centrifuged again and monitored for bound radioactivity as described above. […] This program has the distinct advantage of fitting the raw experimental data on an untransformed coordinate system where errors are most likely to be normally distributed and uncorrelated with the independent variable. […] The parameters for the affinity constants (KD) and receptor densities (Bmax) are also provided along with statistics on the general “fit” of the estimated parameters to the raw data.
Competition Curve Analysis
The resulting pellets were surface washed twice by centrifugation with 1 mL of ice-cold phosphate buffered saline and 0.01% Triton X-100; the supernatants discarded and the pellets monitored for radioactivity at approximately 80% efficiency. The level of non-specific binding was defined in the presence of […] unlabeled rat/humanCRF (r/hCRF). Data from competition curves were analyzed by the program LIGAND. […] Routinely, the data were analyzed using a one- and two-site model comparing the “goodness of fit” between the models in order to accurately determine the Ki. Statistical analyses provided by LIGAND allowed the determination of whether a single-site or multiple-site model should be used.
In Table 17; the Ki values were determined using the assay conditions described above.

The mark [1] stands for this setting: competition with [125I] ovine CRF, 2 h at 22° C., Ki classes.

Turning to `CCN(c1nc(C)cc(CN2CCN(c3ccccc3OC)CC2)n1)c1ccc(C(C)C)cc1Br` [compound 275], the Ki is less than 500 nM.

For the compound `CCN(c1nc(C)cc(S(C)(=O)=O)n1)c1ccc(C(C)C)cc1Br` [compound 159, N-(2-bromo-4-(1-methylethyl)phenyl)-N-ethyl-4-methyl-6-(thiomethyl)-2-pyrimidinamine, dioxide], the Ki is less than 500 nM.

With `CCN(c1nc(C)cc(COc2cc(OC)c(OC)c(OC)c2)n1)c1ccc(C(C)C)cc1Br` [compound 214], the inhibition constant Ki fell in the range of 501 to 2000 nM.

For `CCN(c1nc(C)cc(N2CCSCC2)n1)c1ccc(C(C)C)cc1I` [compound 73, N-ethyl-N-(2-iodo4-(1-methylethyl)phenyl)4-thiomorpholino-6-methyl-2-pyrimidinamine], the Ki was less than 500 nM.

For the compound `CCN(c1nc(C)cc(C(=O)OC)n1)c1ccc(C(C)C)cc1Br` [compound 61, Methyl 2-((2-bromo-4-(1-methylethyl)phenyl)ethylamino)-6-methyl-4-pyrimidinecarboxylate], under setting [1], the Ki is less than 500 nM.

In the case of `C#CCN(c1nc(C)cc(C)n1)c1ccc(C(C)C)cc1Br` [compound 34, N-(2-Bromo-4-(1-methylethyl)phenyl)-N-propargyl4,6-dimethyl-2-pyrimidinamine], the Ki is less than 500 nM.

With `Cc1cc(C)nc(N(C)c2ccc(I)cc2)n1` [compound 52], the Ki was in the range of 2000 to 10000 nM.

Turning to `CCN(c1nc(C)cc(COC)n1)c1ccc(C(C)C)cc1I` [compound 207], the Ki was less than 500 nM.

For `Cc1cc(C)nc(N(C)c2ccccc2C(F)(F)F)n1` [compound 54], the Ki was in the range of 2000 to 10000 nM.

In the case of `CCSc1cc(C(C)=NOC)ccc1N(CC)c1nc(C)cc(C)n1` [compound 176, N-(2-ethylthio-4-methoxyiminoethylphenyl)-N-ethyl-4,6-dimethyl-2-pyrimidinamine], the Ki under setting [1] was less than 500 nM.

In the case of `CCN(c1nc(C)cc(CN(C)C)n1)c1ccc(C(C)C)cc1Br` [compound 279], the Ki is less than 500 nM.

As for `CCN(c1nccc(C)n1)c1ccc(C(C)C)cc1Br` [compound 49, N-(2-Bromo-4-(1-methylethyl)phenyl)-N-ethyl-4-methyl-2-pymidinamine], the Ki lay within 2000 to 10000 nM.

As for `Cc1cc(C)nc(N(CC2CC2)c2ccc(C(C)C)cc2Br)n1` [compound 33], the Ki is less than 500 nM.

As for `CCN(c1nc(C)cc([S+](C)[O-])n1)c1ccc(C(C)C)cc1Br` (stereo not drawn) [compound 160, N-(2-bromo-4-(1-methylethyl)phenyl)-N-ethyl-4-methyl-6-(thiomethyl)-2-pyrimidinamine, S-oxide], the Ki is less than 500 nM.

`CCN(c1nc(C)cc(C(O)c2ccco2)n1)c1ccc(C(C)C)cc1Br` (stereo not drawn) [compound 291]: the Ki is less than 500 nM.

Consider `CCN(c1nc(C)nc(N2CCOCC2)n1)c1ccc(C(C)C)cc1Br` [compound 134, N-[2-bromo-4-(1-methylethyl)phenyl]-N-ethyl-4-methyl-6-(4-morpholinyl)-1,3,5-triazin-2-amine], for which the Ki was less than 500 nM.

Regarding `C=CCN(c1nc(C)cc(C)n1)c1ccccc1Br` [compound 3], the Ki is 501 to 2000 nM.

For the compound `CCN(c1nc(C)cc(N(C)CCO)n1)c1ccc(C(C)C)cc1Br` [compound 50, N-(2-Bromo-4-(1-methylethyl)phenyl)-N-ethyl-4-methyl-6-(N-methyl-2-hydroxyethlamino)-2-pyrimidinamine], the Ki was less than 500 nM.

In the case of `CCc1ccc(N(C)c2nc(C)cc(C)n2)c(Br)c1` [compound 9, N-(2-bromo-4-ethylphenyl)-N-methyl-4,6-dimethyl-2-pypimidinamine], the Ki is less than 500 nM.

For `CCN(c1nc(C)cc(COc2ccc(-n3ccnc3)cc2)n1)c1ccc(C(C)C)cc1Br` [compound 218], the Ki was less than 500 nM.

For the compound `CCN(c1nc(C)cc(OCCCS(C)(=O)=O)n1)c1ccc(C(C)C)cc1Br` [compound 156], the Ki was less than 500 nM.

For the compound `CCN(c1nc(C)cc(OCCC[S+](C)[O-])n1)c1ccc(C(C)C)cc1Br` (stereo not drawn) [compound 162], the Ki was less than 500 nM.

In the case of `CCN(c1nc(C)cc(C)n1)c1ccc(C(C)C)cc1OC` [compound 65, N-ethyl-N-(2-methoxy4-(1-methylethyl)phenyl)4,6-dimethyl-2-pyimidinamine], under setting [1], the Ki was 2000 to 10000 nM.

For the compound `CCN(c1nc(C)cc(C(=O)N2CCN(c3ccccn3)CC2)n1)c1ccc(C(C)C)cc1Br` [compound 274], the Ki is 2000 to 10000 nM.

For `CCN(c1nc(C)cc(CN(C)Cc2ccco2)n1)c1ccc(C(C)C)cc1Br` [compound 276], the Ki was less than 500 nM.

As to `CCN(c1nc(C)cc(NCCN(C)C)n1)c1ccc(C(C)C)cc1Br` [compound 163], the Ki was 501 to 2000 nM.

Regarding `CCN(c1cc(OC)nc(OC)n1)c1ccc(C(C)C)cc1Br` [compound 130], the Ki fell in the range of 501 to 2000 nM.

As for `COc1ccc(N(C)c2nc(C)cc(C)n2)c(OC)c1` [compound 2], the Ki was in the range of 501 to 2000 nM.

As to `CCN(c1nc(Cl)nc(Cl)n1)c1ccc(C(C)(C)O)cc1I` [compound 249, N-[2-iodo-4-dimethylhydroxymethylphenyl]-N-ethyl-4-6-dichloro-1,3,5 triazin-2-amine], the Ki is 2000 to 10000 nM.

In the case of `C=CCOC1CCN(c2cc(C)nc(N(CC)c3ccc(C(C)C)cc3Br)n2)CC1` [compound 37], the Ki was less than 500 nM.

On to `CCN(c1nc(C)cc(COc2ccccn2)n1)c1ccc(C(C)C)cc1Br` [compound 210], for which the Ki was 501 to 2000 nM.

Take `CCN(c1nc(C)cc(COc2ccccc2)n1)c1ccc(C(C)C)cc1Br` [compound 209]: the Ki was less than 500 nM.

On to `CCN(c1nc(C)cc(C(C)O)n1)c1ccc(C(C)C)cc1Br` (stereo not drawn) [compound 296], for which the Ki was less than 500 nM.

With `CCN(c1nc(C)cc(COc2ncccn2)n1)c1ccc(C(C)C)cc1Br` [compound 213], the Ki is less than 500 nM.

Take `Cc1cc(C)nc(N(C)c2ccc(C(C)(C)C)cc2Br)n1` [compound 11]: the Ki is less than 500 nM.

With `Cc1cc(C)nc(N(C)c2ccccc2I)n1` [compound 53], the Ki fell in the range of 2000 to 10000 nM.

For `CCN(c1nc(C)cc(COCc2cccnc2)n1)c1ccc(C(C)C)cc1Br` [compound 216], the Ki was less than 500 nM.

For the compound `CCN(c1nc(C)cc(C)n1)c1ccc(C(C)=NOC)cc1SC` [compound 178, N-(2-methylthio-4-methoxyiminoethylphenyl)-N-ethyl-4,6-dimethyl-2-pyrimidinamine], the Ki under setting [1] is less than 500 nM.

As for `CCN(c1nc(C)nc(OCc2ccccc2)n1)c1ccc(C(C)C)cc1Br` [compound 242, N-[2-bromo-4(1-methylethyl)phenyl]-N-ethyl-4-methyl-6-benzyloxy-1,3,5 triazin-2-amine], the Ki was 501 to 2000 nM.

Consider `CCN(c1nc(C)cc(C(O)c2ccc(OC)cc2)n1)c1ccc(C(C)C)cc1Br` (stereo not drawn) [compound 292], for which the Ki is less than 500 nM.

As to `CCN(c1nc(C)nc(C)n1)c1ccc(C(C)C)cc1Br` [compound 133], the Ki was 501 to 2000 nM.

Take `CCOC(=O)C(C(=O)OCC)c1nc(C)nc(N(CC)c2ccc(C(C)C)cc2Br)n1` [compound 246]: the Ki is less than 500 nM.

For the compound `CCN(c1nc(C)cc(OCc2ccccc2)n1)c1ccc(C(C)C)cc1Br` [compound 149], the Ki was less than 500 nM.

`CCN(c1nc(C)cc(C)n1)c1ccc(C(C)=NOC)cc1S(C)(=O)=O` [compound 179, N-(2-methylsulfonyl-4-methoxyiminoethylphenyl)-N-ethyl-4,6-dimethyl-2-pyrimidinamine]: the Ki under setting [1] lay in the range of 2000 to 10000 nM.

For the compound `CCN(c1nc(C)nc(N2CCOCC2)n1)c1c(OC)cc(OC)cc1OC` [compound 239], the Ki was less than 500 nM.

As to `Cc1cc(Cl)nc2c1ccn2-c1ccc(C(C)C)cc1Br` [Example 263], the Ki is less than 500 nM.

For `CCN(c1nc(C)cc(C)n1)c1ccc(C2CCCCC2)cc1Br` [compound 22], the Ki lay in the range of 501 to 2000 nM.

`CCN(c1nc(C)cc(COCCN2CCOCC2)n1)c1ccc(C(C)C)cc1Br` [compound 231]: the Ki was in the range of 2000 to 10000 nM.
